{"source": "ChEMBL document CHEMBL1126161", "about": "“3,4-Dihydroquinolin-2(1H)-ones as combined inhibitors of thromboxane A2 synthase and cAMP phosphodiesterase” (J Med Chem, 1992)", "key": {"[1]": {"tested_on": "Rattus norvegicus", "assay": "Antihypertensive activity in conscious spontaneously hypertensive rat (SHR), percent change in Systolic blood pressure (SBP) at 0.3 mg/kg peroral dose after 4 hr", "format": "functional", "details": "route oral"}, "[2]": {"species": "Homo sapiens", "assay": "Inhibition of [14C]arachidonic acid induced platelet aggregation at 500 uM (Control TXB2 = 14.9+/-2.5)", "format": "functional"}, "[3]": {"biological_target": "Phosphodiesterase 3 (Homo sapiens, UniProt Q14432+Q13370)", "assay": "Inhibition of human blood platelet c-AMP phosphodiesterase"}, "[4]": {"tested_on": "Rattus norvegicus", "assay": "Antihypertensive activity in conscious spontaneously hypertensive rat (SHR), percent change in Systolic blood pressure (SBP) at 10 mg/kg peroral dose after 1 hr", "format": "functional", "details": "route oral"}, "[5]": {"species": "Homo sapiens", "assay": "Inhibition of [14C]arachidonic acid induced platelet aggregation at 500 uM (Control 6-keto-PGF1-alpha = 1.45+/-0.6)", "format": "functional"}, "[6]": {"species": "Homo sapiens", "assay": "Inhibition of [14C]arachidonic acid induced platelet aggregation at 50 uM (Control TXB2 = 14.9+/-2.5)", "format": "functional"}, "[7]": {"tested_on": "Rattus norvegicus", "assay": "Antihypertensive activity in conscious spontaneously hypertensive rat (SHR), percent change in heart rate (beats/min) after 4 hr at 1 mg/kg peroral dose", "format": "functional", "details": "route oral"}, "[8]": {"tested_on": "Rattus norvegicus", "assay": "Antihypertensive activity in conscious spontaneously hypertensive rat (SHR), percent change in Systolic blood pressure (SBP) at 1 mg/kg peroral dose after 1 hr", "format": "functional", "details": "route oral"}, "[9]": {"tested_on": "Rattus norvegicus", "assay": "Antihypertensive activity in conscious spontaneously hypertensive rat (SHR), percent change in heart rate (beats/min) after 8 hr at 0.3 mg/kg peroral dose", "format": "functional", "details": "route oral"}, "[10]": {"species": "Homo sapiens", "assay": "In vitro inhibition of ADP-induced aggregation of human PRP in the presence of pig aortal microsomes (PAM).", "format": "functional"}, "[11]": {"species": "Homo sapiens", "assay": "Inhibition of [14C]arachidonic acid induced platelet aggregation at 50 uM (Control 6-keto-PGF1-alpha = 1.45+/-0.6)", "format": "functional"}, "[12]": {"tested_on": "Rattus norvegicus", "assay": "Antihypertensive activity in conscious spontaneously hypertensive rat (SHR), percent change in heart rate (beats/min) after 4 hr at 3 mg/kg peroral dose", "format": "functional", "details": "route oral"}, "[13]": {"tested_on": "Rattus norvegicus", "assay": "Antihypertensive activity in conscious spontaneously hypertensive rat (SHR), percent change in Systolic blood pressure (SBP) at 3 mg/kg peroral dose after 12 hr", "format": "functional", "details": "route oral"}, "[14]": {"tested_on": "Mus musculus", "assay": "Protection against mortality in pulmonary thromboembolism model in mice at 3 mg/kg", "format": "functional"}, "[15]": {"tested_on": "Mus musculus", "assay": "Protection against mortality in pulmonary thromboembolism model in mice at 9 mg/kg", "format": "functional"}, "[16]": {"tested_on": "Mus musculus", "assay": "Time course of protection against mortality in a pulmonary thromboembolism model in mice after -3 hr at 10 mg/kg", "format": "functional"}, "[17]": {"tested_on": "Mus musculus", "assay": "Time course of protection against mortality in a pulmonary thromboembolism model in mice after -7hr at 10 mg/kg", "format": "functional"}, "[18]": {"biological_target": "T1, Thromboxane-A synthase (Homo sapiens) (UniProt P24557)", "T1 sequence (whole entry)": "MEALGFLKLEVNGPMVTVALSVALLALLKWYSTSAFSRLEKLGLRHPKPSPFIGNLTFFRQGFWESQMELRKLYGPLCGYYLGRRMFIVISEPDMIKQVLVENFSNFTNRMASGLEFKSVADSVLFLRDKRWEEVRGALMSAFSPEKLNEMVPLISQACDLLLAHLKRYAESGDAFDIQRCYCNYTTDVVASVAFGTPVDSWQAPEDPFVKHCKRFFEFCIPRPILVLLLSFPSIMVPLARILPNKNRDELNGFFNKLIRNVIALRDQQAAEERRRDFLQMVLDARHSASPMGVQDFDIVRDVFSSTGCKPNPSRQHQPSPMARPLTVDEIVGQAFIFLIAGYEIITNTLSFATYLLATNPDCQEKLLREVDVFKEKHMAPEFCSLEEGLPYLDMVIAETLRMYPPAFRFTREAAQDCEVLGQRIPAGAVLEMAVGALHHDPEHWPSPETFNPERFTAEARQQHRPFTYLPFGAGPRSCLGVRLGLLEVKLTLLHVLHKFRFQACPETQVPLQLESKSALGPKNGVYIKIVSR", "assay": "Effect of TXA2 synthase inhibitor (compound) on serum TXB2 level in rats at 50 mg/kg po, after 2 hr", "format": "functional, organism-based", "set-up": "dose 50 mg/kg", "details": "Rattus norvegicus, target entry is the homologue from another species"}, "[19]": {"tested_on": "Rattus norvegicus", "assay": "Antihypertensive activity in conscious spontaneously hypertensive rat (SHR), percent change in heart rate (beats/min) after 1 hr at 3 mg/kg peroral dose", "format": "functional", "details": "route oral"}, "[20]": {"tested_on": "Rattus norvegicus", "assay": "Antihypertensive activity in conscious spontaneously hypertensive rat (SHR), percent change in heart rate (beats/min) after 8 hr at 10 mg/kg peroral dose", "format": "functional", "details": "route oral"}, "[21]": {"tested_on": "Rattus norvegicus", "assay": "Antihypertensive activity in conscious spontaneously hypertensive rat (SHR), percent change in Systolic blood pressure (SBP) at 10 mg/kg peroral dose", "format": "functional", "details": "route oral"}, "[22]": {"tested_on": "Rattus norvegicus", "assay": "Antihypertensive activity in conscious spontaneously hypertensive rat (SHR), percent change in heart rate (beats/min) after 1 hr at 0.3 mg/kg peroral dose", "format": "functional", "details": "route oral"}, "[23]": {"tested_on": "Rattus norvegicus", "assay": "Antihypertensive activity in conscious spontaneously hypertensive rat (SHR), percent change in heart rate (beats/min) after 12 hr at 0.3 mg/kg peroral dose", "format": "functional", "details": "route oral"}}}
{"smiles": "O=C1CCc2cc(/C=C/n3ccnc3)ccc2N1", "values": [{"measurement": "Change in systolic BP", "setting": "[1]", "value": -28, "unit": "%"}, {"measurement": "inhibition at 500 µM", "setting": "[2]", "value": 4.3, "unit": "%"}, {"measurement": "IC50", "setting": "[3]", "value": 6400, "unit": "nM"}, {"measurement": "Change in systolic BP", "setting": "[4]", "value": -56, "unit": "%"}, {"measurement": "inhibition at 500 µM", "setting": "[5]", "value": 21.1, "unit": "%"}, {"measurement": "inhibition at 50 µM", "setting": "[6]", "value": 8, "unit": "%"}, {"measurement": "Change in heart rate", "setting": "[7]", "value": 7, "unit": "%"}, {"measurement": "Change in systolic BP", "setting": "[8]", "value": -19, "unit": "%"}, {"measurement": "Change in heart rate", "setting": "[9]", "value": -8, "unit": "%"}, {"measurement": "IC50", "setting": "[10]", "value": 1200, "unit": "nM"}, {"measurement": "6-keto-PGF1α level at 50 µM", "setting": "[11]", "value": 11.5, "unit": "%"}, {"measurement": "Change in heart rate", "setting": "[12]", "value": 20, "unit": "%"}, {"measurement": "Change in systolic BP", "setting": "[13]", "value": -3, "unit": "%"}, {"measurement": "survival at 3 mg/kg", "setting": "[14]", "value": 20, "unit": "%"}, {"measurement": "survival at 9 mg/kg", "setting": "[15]", "value": 50, "unit": "%"}, {"measurement": "survival at 10 mg/kg", "setting": "[16]", "value": 20, "unit": "%"}, {"measurement": "survival at 10 mg/kg", "setting": "[17]", "value": 0, "unit": "%"}, {"measurement": "inhibition", "setting": "[18]", "value": 97, "unit": "%"}, {"measurement": "Change in heart rate", "setting": "[19]", "value": 28, "unit": "%"}, {"measurement": "Change in heart rate", "setting": "[20]", "value": 16, "unit": "%"}, {"measurement": "Change in systolic BP", "setting": "[21]", "value": -35, "unit": "%"}, {"measurement": "Change in heart rate", "setting": "[22]", "value": 3, "unit": "%"}, {"measurement": "Change in heart rate", "setting": "[23]", "value": -8, "unit": "%"}]}
